Experimental data reported in patent US10058587B2, “Peptide composition for cancer treatment by inhibiting TRPV6 calcium channel activity” (priority 2008, dated 2018).
Where no end group is shown, it is not given here.

Tests used:
mealworm larvae = assay: Mealworm larva paralytic bioassay; type: in vivo; details: for larvae paralyzed: 20 nmole/100 mg mass; for paralysis in the mealworm larva model: molar equivalent doses (20 nanomole/100 mg larva)
Description: To show this, the mealworm larva paralytic bioassay reported previously (U.S. Pat. No. 7,119,168) was used. Animals from a mealworm colony were arbitrarily selected and placed in groups (treatment and control). The animals were weighed to allow calculation of equivalent doses. The treatment was with either SorC13 or SorC27 dissolved in buffered insect Ringer's solution. The control was injection was an equivalent volume of insect Ringer's (NaCl; 10.40 g; KCl, 0.32 g; CaCl2, 0.48 g; NaHCO3, 0.32 g dissolved in 1 L of Millipore sterile water, pH 7.4). Peptide formulations were: SorC27 solutions, prepared at 1.0 mg/100 uL insect Ringer's (10 ug/uL, […], MW=2957); and SorC13, prepared at 0.5 mg/100 uL (5 ug/uL, […], MW=1566). The doses were 50 ug SorC27 per 100 mg of animal mass and 25 ug SorC13 per 100 mg of animal mass. Peptide solutions and control saline were injected dorsally at the fourth segment from the head, just under the integumen. Animals were gently ‘tail tweaked’ with forceps to trigger the escape reflex reaction and scored on time-to-effect, duration of effect and intensity of effect.

[1] = tested on: MDA-MB-468 (MB 468) breast cancer cell line; assay: Induction of apoptosis (APO-ONE caspase 3/7) and cell viability (CellTiter Blue); type: cell-based, human
Procedure: MCF-7, MDA-MB-231, MDA-MB-415, MDA-MB-468 were grown in DMEM modified with 10% (v/v) fetal bovine serum, 2 mM L-glutamine and 50 ug/mL each of penicillin and streptomycin.
The levels of apoptotic induction and cell viability were determined by multiplexing the measurements for single samples. CellTiter Blue and APO-ONE assay systems from Promega allows the determination of cell viability correlated to cell number, and induction of apoptosis. This protocol uses a fluorgenic peptide that contains a peptide recognition-sequence for caspase 3 and caspase 7, […] proteolytic enzymes of the apoptosis cascade. The CellTiter Blue reagent was added to wells in a 96-well plate containing cells under test, immediately after addition of peptide solution or vehicle. About 5000 cells were plated into the wells the day before. At the chosen time (Day 1, Day 2 etc.) the fluorescence was measured at 590 nm (emission) after excitation at 560 nm. The caspase 3/7 activity was measured (485 nm Ex/527 nm Em) in the same wells after adding 120 uL of the Apo-ONE reagent, freeze fracturing at −80° C. for 1 hr, and incubating for 1 hr at room temperature.
For this work, the concentrations of SorC13 and SorC27 used were 0 uM, 1 uM, 10 uM and 100 uM. The experiments extended over a 5 to 7 day period. All measurements were done in quadruplicate with both a blank (no cells) and control (vehicle, no peptide) used to correct the test measurements. The time-response data, and the dose-response data were plotted as means±standard error of the mean. Any statistical comparisons were done with the Student's t-test or by ANOVA analysis over the dose course. The level of statistical significance was considered to be the 95% confidence interval (i.e., p≤0.05).

[2] = tested on: NIH-OVCAR-3 and SKOV3 cells; assay: Ovarian adenocarcinoma xenograft model (Example 14, general results); type: in vivo, NOD/SCID mice; details: 400 mg/kg body weight
Procedure: Optionally, to implant NIH-OVCAR-3 or SKOV3 tumor cells into NOD/SCID mice, cell cultures are centrifuged to pellet the cells, the supernatant is aspirated, the cell pellet is resuspended in 10 ml of growth media and the cell number is determined using a hemocytometer. The cells are then washed in appropriate media and re-suspended at a concentration of 5×10^7 cells/ml in media. Using a 27 gauge needle and 1 cc syringe, 0.1 ml of the cell suspension is injected subcutaneously into the flanks of the mice. Tumors are then permitted to develop in vivo until the majority reach 100-200 mm^3 in tumor volume, which typically requires 1-2 weeks following implantation. These tumors are used to produce tissue subcutaneous implants into NOD/SCID mice which after 2 days are treated with either the test peptides or CAT.
Tumor volumes (V) are calculated by caliper measurement using standard measurements of the width (W), length (L) and thickness (T) of tumors. Animals are randomized into treatment groups so that the median tumor volumes of each group were similar at the start of dosing. % T/C values, as a measure of efficacy, are determined where C refers to volume of control or untreated tumor, and T refers to volume of treated tumor.
Animals are intraperitoneally (i.p.) injected with this formulation at 10 ml per kg body weight on a schedule.

[3] = tested on: Human Non-Small Cell Lung Carcinoma (NSCLC) lines H1437 and H2087; assay: Apoptosis (APO-ONE) and cell viability (CellTiter Blue) in NSCLC lines (Example 9); type: cell-based; details: 10 and 100 uM
Procedure: The effects of the C-peptides on metastasizing human lung carcinoma cells are studied. […] In vitro studies employing SorC13 and SorC27 are carried out in metastatic lymph node-derived cell lines to determine their effect on Human Non-Small Cell Lung Carcinoma (NSCLC) lines H1437 (from ATCC CRL-5872) and H2087 (from ATCC CRL-5922). Both of these cell lines are adenocarcinomas derived from the metastaic site (lymph node) and from a stage 1 NSCLC lung cancer. Major lymphatics of interest which are usefully treated with peptides of the invention include superfacial cervical nodes, axillary nodes, brachial nodes, mesenteric nodes and inguinal nodes.
For the study, the cell lines are grown under the recommended conditions and in culture media recommended by ATCC. The cell lines are cultured under sterile conditions at 37° C., in a humidified 5% CO2 atmosphere.
Both the APO-ONE assay and the CellTiter Blue (Promega) are used on the cell lines to evaluate apoptosis and cell viability, respectively.

Daudi = assay: Apoptosis and cell viability in Burkitt's lymphoma cell line (Example 11); type: cell-based, human; details: 0, 10 and 100 uM, 5 to 7 days
Procedure: For this work, the concentrations of SorC13 and SorC27 used are 0 uM, 10 uM and 100 uM. The experiments extend over a 5 to 7 day period. All measurements are done in quadruplicate with both a blank (no cells) and control (vehicle, no peptide) used to correct the test measurements. The time-response data, and the dose-response data are plotted as means±standard error of the mean.
The cell line Daudi (from ATCC CCL-213) is grown under the recommended conditions and in culture media recommended by ATCC. The cell lines were cultured under sterile conditions at 37° C., in a humidified 5% CO2 atmosphere.
Induction of apoptosis and attendant decrease is observed in cell viability in the cancer cell lines. From the large increases in the activities of the caspase3/7 activity, it is clear that there is a time dependent effect and a dose dependent effect on the induction of apoptosis.

Sequence | larvae paralyzed (mealworm larvae; time 0 min) | larvae paralyzed (mealworm larvae; time 2 min) | larvae paralyzed (mealworm larvae; time 30 min) | paralysis in the mealworm larva model (mealworm larvae) | Apoptosis Index (1 = no effect) ([1]; SorC13 1 uM) | Apoptosis Index (1 = no effect) ([1]; SorC13 10 uM) | Apoptosis Index (1 = no effect) ([1]; SorC13 100 uM) | growth rate of tumor cells [2] | induction of apoptosis [3] | induction of apoptosis and cell viability (Daudi) | Apoptosis Index (1 = no effect) ([1]; Day 3, SorC27 10 μM) | Apoptosis Index (1 = no effect) ([1]; Day 3, SorC27 100 μM)
KEFLHPSKVDLPR [SorC13, KEFLHPSKVDLPR] | 0/4 | 0/4 | 0/4 | no evidence of paralysis | 2.7 | 3.3 | 2.7 | substantially decreases the growth rate | induce apoptosis | induces apoptosis and decreases cell viability | – | –
EGKLSSNDTEGGLCKEFLHPSKVDLPR [SorC27] | 0/4 | 0/4 | 0/4 | no evidence of paralysis | – | – | – | substantially decreases the growth rate | induce apoptosis | induces apoptosis and decreases cell viability | 1.1 | 1.2
